# Assay results: PubChem BioAssay (NCI)
#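 Method: 48-hour compound exposure of cells in 96-well plates, five concentrations, linear interpolation of endpoints. Here, GI50 denotes the concentration required for 50% inhibition of growth. TGI: total growth inhibition.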
# Key:
# Assay in all cases: NCI anticancer screen, dose series, 48 h
# 786-0 renal = system: 786-0 renal
# A498 renal = system: A498 renal
# A549 NSCLC = system: A549 NSCLC
# ACHN renal = system: ACHN renal
# BT-549 breast = system: BT-549 breast
# CAKI-1 renal = system: CAKI-1 renal
# CCRF-CEM leukemia = system: CCRF-CEM leukemia
# COLO 205 colon = system: COLO 205 colon
# DU-145 prostate = system: DU-145 prostate
# EKVX NSCLC = system: EKVX NSCLC
# HCC-2998 colon = system: HCC-2998 colon
# HCT-116 colon = system: HCT-116 colon
# HCT-15 colon = system: HCT-15 colon
# HL-60(TB) leukemia = system: HL-60(TB) leukemia
# HOP-62 NSCLC = system: HOP-62 NSCLC
# HOP-92 NSCLC = system: HOP-92 NSCLC
# HS 578T breast = system: HS 578T breast
# HT29 colon = system: HT29 colon
# IGROV1 ovarian = system: IGROV1 ovarian
# K-562 leukemia = system: K-562 leukemia
# KM12 colon = system: KM12 colon
# LOX IMVI melanoma = system: LOX IMVI melanoma
# M14 melanoma = system: M14 melanoma
# MALME-3M melanoma = system: MALME-3M melanoma
# MCF7 breast = system: MCF7 breast
# MDA-MB-231 breast = system: MDA-MB-231 breast
# MDA-MB-435 = system: MDA-MB-435
# MDA-MB-468 breast = system: MDA-MB-468 breast
# MOLT-4 leukemia = system: MOLT-4 leukemia
# NCI-H226 lung = system: NCI-H226 lung
structure (smiles),measurement,setting,value
C=C1CCC2C3(C)COC(c4cc(F)cc(F)c4)OC3CCC2(C)C1C/C=C1/C(=O)OCC1O (centres undefined),GI50,786-0 renal,1730 nM
same,TGI,786-0 renal,3130 nM
same,GI50,A498 renal,3410 nM
same,TGI,A498 renal,15600 nM
same,GI50,A549 NSCLC,2550 nM
same,TGI,A549 NSCLC,8390 nM
same,GI50,ACHN renal,1700 nM
same,TGI,ACHN renal,3070 nM
same,GI50,BT-549 breast,1410 nM
same,TGI,BT-549 breast,2730 nM
same,GI50,CAKI-1 renal,1620 nM
same,TGI,CAKI-1 renal,3010 nM
same,GI50,CCRF-CEM leukemia,649 nM
same,TGI,CCRF-CEM leukemia,4190 nM
same,GI50,COLO 205 colon,1860 nM
same,TGI,COLO 205 colon,3320 nM
same,GI50,DU-145 prostate,2210 nM
same,TGI,DU-145 prostate,5110 nM
same,GI50,EKVX NSCLC,2500 nM
same,TGI,EKVX NSCLC,6500 nM
same,GI50,HCC-2998 colon,1660 nM
same,TGI,HCC-2998 colon,3160 nM
same,GI50,HCT-116 colon,1430 nM
same,TGI,HCT-116 colon,2930 nM
same,GI50,HCT-15 colon,1440 nM
same,TGI,HCT-15 colon,2980 nM
same,GI50,HL-60(TB) leukemia,1350 nM
same,TGI,HL-60(TB) leukemia,3590 nM
same,GI50,HOP-62 NSCLC,1780 nM
same,TGI,HOP-62 NSCLC,3440 nM
same,GI50,HOP-92 NSCLC,1770 nM
same,TGI,HOP-92 NSCLC,3820 nM
same,GI50,HS 578T breast,2110 nM
same,TGI,HS 578T breast,5610 nM
same,GI50,HT29 colon,1790 nM
same,TGI,HT29 colon,3610 nM
same,GI50,IGROV1 ovarian,1810 nM
same,TGI,IGROV1 ovarian,3530 nM
same,GI50,K-562 leukemia,1980 nM
same,TGI,K-562 leukemia,6170 nM
same,GI50,KM12 colon,1900 nM
same,TGI,KM12 colon,3860 nM
same,GI50,LOX IMVI melanoma,1480 nM
same,TGI,LOX IMVI melanoma,2790 nM
same,GI50,M14 melanoma,1740 nM
same,TGI,M14 melanoma,3390 nM
same,GI50,MALME-3M melanoma,1690 nM
same,TGI,MALME-3M melanoma,3150 nM
same,GI50,MCF7 breast,1180 nM
same,TGI,MCF7 breast,2600 nM
same,GI50,MDA-MB-231 breast,1670 nM
same,TGI,MDA-MB-231 breast,3250 nM
same,GI50,MDA-MB-435,1550 nM
same,TGI,MDA-MB-435,3100 nM
same,GI50,MDA-MB-468 breast,1730 nM
same,TGI,MDA-MB-468 breast,3160 nM
same,GI50,MOLT-4 leukemia,2580 nM
same,TGI,MOLT-4 leukemia,7520 nM
same,GI50,NCI-H226 lung,1730 nM
